Drawing on the Deep4Chem optical property database, this text covers photoluminescence quantum yield for 45 compounds.

This data set is described as follows: photoluminescence quantum yield (fraction); solvent given as SMILES.

In the case of `Cc1cc2oc3ccccc3c2c2[nH]c3ccccc3c12`, for the setting “in ClCCl”, the photoluminescence quantum yield turned out to be 0.485.
`CCCCCCN(CCCCCC)c1ccc(C#Cc2ccc([N+](=O)[O-])cc2)cc1` showed a photoluminescence quantum yield (in CO) of 0.0016 and a photoluminescence quantum yield (in ClCCl) of 0.0015.
`C#Cc1ccc2cc(/C=C/C(=O)OCC)c(=O)oc2c1` yielded a photoluminescence quantum yield (in CCO) of 0.36.
For the compound `Oc1ccccc1-c1nc2c3ccccc3c3ccccc3c2o1`, the photoluminescence quantum yield (in Cc1ccccc1) was determined as 0.003.
Take `F[B-]1(F)N2C(=Nc3cccc4cccc2c34)c2cccc[n+]21`: the photoluminescence quantum yield reads like this: (in CC#N) 0.0002; (in CO) 0.007; (in CS(C)=O) 0.0005; (in Cc1ccccc1) 0.006.
`CC(C)(C)c1ccc(-c2c(-c3cccc(N(c4ccccc4)c4ccccc4)c3)c(C#N)c(-c3cccc(N(c4ccccc4)c4ccccc4)c3)c(-c3ccc(C(C)(C)C)cc3)c2-c2ccc(C(C)(C)C)cc2)cc1` returned a photoluminescence quantum yield (in C1CCOC1) of 0.072.
As to `c1cc2ccc3cc4cccc5ccc6cc(c1)c2c3c6c54`, the photoluminescence quantum yield (in C1CCCCC1) is 0.31; the photoluminescence quantum yield (in CC#N) amounted to 0.32; the photoluminescence quantum yield (in CO) came to 0.38; the photoluminescence quantum yield (in Cc1ccccc1) amounted to 0.47; the photoluminescence quantum yield (in ClCCl) came to 0.24.
Compound `c1cc(-c2c3ccccc3c(-c3ccc4ccccc4c3)c3ccccc23)cc(-n2c3ccccc3c3ccccc32)c1` came in with a photoluminescence quantum yield (in ClCCl) of 0.73.
Regarding `CC(C)(C)c1cc(C(C)(C)C)c2oc3c(c2c1)C=CN1C(=O)C2=C4c5oc6c(C(C)(C)C)cc(C(C)(C)C)cc6c5C=CN4C(=O)C2=C31`, the photoluminescence quantum yield (in CN(C)C=O) worked out at 0.6 and the photoluminescence quantum yield (in ClC(Cl)Cl) is 0.99.
In turn, `Cn1c2nc(=O)[nH]c(=O)c-2nc2ccccc21` came in with a photoluminescence quantum yield (in CC1CCCO1) of 0.3.
On to `CCC1=C(C)C2C(c3ccc(-c4ccc(-c5nc6c7ccccc7c7ccccc7c6n5-c5ccc(C(C)(C)C)cc5)cc4)cc3)c3c(C)c(CC)c(C)n3[B-](F)(F)[N+]2=C1C` (configuration not stated), for which the photoluminescence quantum yield (in ClC(Cl)Cl) is 0.672.
For the setting “in CS(C)=O”, `Brc1ccc2cc3c4ccccc4nc(-c4ccco4)c3n2c1` gave a photoluminescence quantum yield of 0.03.
Take `C[Si]1(C)c2cc(-c3ccc(-c4cccs4)s3)ccc2C=Cc2ccc(-c3ccc(-c4cccs4)s3)cc21`: the photoluminescence quantum yield (in ClCCl) is 0.46.
`CCCCCCc1ccc(-n2c3c(c4c2c2c(n4-c4ccc(CCCCCC)cc4)-c4cccc(OC)c4NB2c2ccccc2)B(c2ccccc2)Nc2c(OC)cccc2-3)cc1` showed a photoluminescence quantum yield (in Cc1ccccc1) of 0.62.
`N#Cc1ccc(-n2cccc2)cc1`: the photoluminescence quantum yield runs as follows: (in C1CCOC1) 0.024; (in CC#N) 0.024; (in CCCCCC) 0.077; (in CCOCC) 0.023; (in ClCCl) 0.022.
As to `CCN1C(=O)C(C2C(=O)c3c4ccccc4cc4cc5ccccc5c2c34)C(=O)N(CC)C1=S` (configuration not stated), the photoluminescence quantum yield (in C1CCOC1) was 0.205, the photoluminescence quantum yield (in CCCCCC) came out at 0.316, the photoluminescence quantum yield (in Cc1ccccc1) was determined as 0.052 and the photoluminescence quantum yield (in ClCCl) is 0.237.
On to `CC(=O)c1c2c(c(C(C)=O)c3c1OC(CC(=O)O)O3)OCO2`, for which, under “in CC#N”, the photoluminescence quantum yield is 0.43.
In turn, `CNc1cccc2c1C(=O)c1ccccc1-2` returned a photoluminescence quantum yield (in C1CCCCC1) of 0.042, a photoluminescence quantum yield (in CC#N) of 0.065, a photoluminescence quantum yield (in CCO) of 0.064 and a photoluminescence quantum yield (in c1ccccc1) of 0.065.
As for `Cc1ccc(-c2nc(-c3ccc(-c4nc(-c5ccc(C)cc5)c(-c5ccc(C)cc5)[nH]4)cc3)[nH]c2-c2ccc(C)cc2)cc1`, the photoluminescence quantum yield (in CS(C)=O) amounted to 0.96.
Turning to `CCCCN(CCCC)c1ccc(C#Cc2cc(C#Cc3ccc(C#N)cc3)c(C#Cc3ccc(N(CCCC)CCCC)cc3)cc2C#Cc2ccc(C#N)cc2)cc1`, the photoluminescence quantum yield (in ClCCl) was found to be 0.25.
For the setting “in O”, `COc1cc(/C=C/CO)ccc1O` had a photoluminescence quantum yield of 0.1.
Compound `COCCOCCOCCOCC(COCCOCCOCCOC)Oc1cc(/C=C/c2ccc(/C=C(\C#N)c3ccccn3)cc2)c(OC(COCCOCCOCCOC)COCCOCCOCCOC)cc1/C=C/c1ccc(/C=C(\C#N)c2ccccn2)cc1` yielded a photoluminescence quantum yield (in ClCCl) of 0.64.
In turn, `Nc1cccc2cc3ccccc3cc12` yielded a photoluminescence quantum yield (in C1CCCCC1) of 0.8.
On to `CCCSc1ccc2n1[B-](F)(F)[N+]1=CC=CC1=C2c1ccccc1`, for which the photoluminescence quantum yield reads like this: (in CC#N) 0.03; (in CCCCCC) 0.03; (in CCOC(C)=O) 0.03; (in CO) 0.02; (in ClCCl) 0.04.
`Cc1cc(=O)c2c(ccc3ccc(O)cc32)o1` gave a photoluminescence quantum yield (in CC#N) of 0.02.
For the compound `Cc1ccc(C2=C3C=C(I)C=[N+]3[B-](F)(F)n3cccc32)cc1`, the photoluminescence quantum yield by setting is: (in C1CCCCC1) 0.034; (in CC#N) 0.008; (in CCO) 0.01; (in CCOC(C)=O) 0.011; (in CO) 0.008; (in OCC(F)(F)F) 0.009.
Turning to `Oc1ccc(C2=N[N+]3=Cc4c(ccc5ccccc45)O[B-]3(c3ccc([B-]45OC(c6ccc(O)cc6)=N[N+]4=Cc4c(ccc6ccccc46)O5)cc3)O2)cc1` (configuration not stated), the photoluminescence quantum yield (in C1CCOC1) amounted to 0.01.
Consider `O=c1ccc2ccccc2o1`, for which the photoluminescence quantum yield (in O) worked out at 0.001.
In the case of `CCN(CC)c1ccc2cc(C#N)/c(=N\C(=O)c3ccccc3)oc2c1`, the photoluminescence quantum yield runs as follows: (in CCO) 0.033; (in ClCCl) 0.87.
For `CC(C)(C)c1ccc(C2=C(c3ccc(N(c4ccccc4)c4ccccc4)cc3)S(=O)(=O)c3c2sc(-c2ccc(N(c4ccccc4)c4ccccc4)cc2)c3-c2ccc(C(C)(C)C)cc2)cc1`, the photoluminescence quantum yield (in C1CCOC1) came to 0.442.
As for `CC(=O)c1ccc(-c2nc3ccc(N(C)C)c(Br)c3s2)cc1`, the photoluminescence quantum yield by setting is: (in C1CCCCC1) 0.11; (in CC#N) 0.54; (in CO) 0.046; (in ClC(Cl)Cl) 0.82.
Where the note is “in CN(C)C=O”, `c1ccc2[nH]c(-c3ccc(-c4ccc(-c5ccc(-c6nc7ccccc7[nH]6)cc5)cc4)cc3)nc2c1` had a photoluminescence quantum yield of 0.88.
Turning to `CC1=CC(/C=C/c2ccc([N+](C)(C)C)cc2)=[N+]2C1=C(c1ccc(I)cc1)c1c(C)cc(/C=C/c3ccc([N+](C)(C)C)cc3)n1[B-]2(F)F`, for the setting “in CC#N”, the photoluminescence quantum yield amounted to 0.69.
The same measure, in the same setting: the result for `c1ccc(-c2nc(-c3ccc(-c4cccs4)s3)[nH]c2-c2ccccc2)cc1` reads 0.24.
Regarding `Cc1cc2c3ccccc3n(C)c2c2c1c1ccccc1n2C`, the photoluminescence quantum yield (in ClCCl) was 0.114.
Consider `CN(C)c1ccc(C#Cc2ccc(C#N)cc2)cc1`, for which the photoluminescence quantum yield is, setting by setting: (in C1CCCCC1) 0.455; (in C1CCOC1) 0.4; (in C1COCCO1) 0.066; (in CC1CCCO1) 0.099; (in CC#N) 0.024; (in CC(C)=O) 0.49. In addition, the photoluminescence quantum yield came out at 0.032 (in CC(C)CC(C)(C)C); 0.006 (in CC(C)O); 0.3 (in CCCCCCCCCCCCCCCC); 0.33 (in CCCCCCCCCCCCCCCCCl); 0.33 (in CCOC(C)=O); 0.29 (in CCOCC). Moreover, the photoluminescence quantum yield is 0.17 (in CN(C)C=O), 0.029 (in CS(C)=O) and 0.38 (in Cc1ccccc1).
With `Cc1ccc2nc3c(nc2c1)c(-c1ccccc1)nn3C`, the photoluminescence quantum yield was 0.29 (in C1CCCCC1), 0.47 (in C1CCOC1) and 0.31 (in CC#N).
In turn, `N#Cc1ccc(N/N=C/c2ccc3ccccc3c2O)cc1` returned a photoluminescence quantum yield (in CO) of 0.13.
`CN(C)c1ccc(/C=C/C=C/c2nc3ccccc3o2)cc1`: the photoluminescence quantum yield was 0.0055 (in CC#N); 0.0176 (in CCCCCC); 0.0045 (in CCCCO); 0.0045 (in CCCO); 0.0048 (in CCO); 0.007 (in CN(C)C=O). In addition, the photoluminescence quantum yield (in CO) amounted to 0.0045; the photoluminescence quantum yield (in Cc1ccccc1) worked out at 0.0078; the photoluminescence quantum yield (in ClCCl) is 0.0048; the photoluminescence quantum yield (in OCC(O)CO) stood at 0.0359; the photoluminescence quantum yield (in OCCO) amounted to 0.0088.
For the setting “in CC1CCCCC1”, `CC(C)(C)c1ccc2cc3c4cccc5cccc(c6cc(C(C)(C)C)cc(c2c1)c63)c54` yielded a photoluminescence quantum yield of 0.74.
On to `N#Cc1c(N2c3ccccc3C(c3ccccc3)(c3ccccc3)c3ccccc32)cccc1N1c2ccccc2C(c2ccccc2)(c2ccccc2)c2ccccc21`, for which the photoluminescence quantum yield (in Cc1ccccc1) was found to be 0.67.
Turning to `Cc1ccccc1C`, the photoluminescence quantum yield (in C1CCCCC1) worked out at 0.26.
`C/C=C/c1cc(OC)cc(OC)c1`: the photoluminescence quantum yield was found to be 0.05 (in CC#N) and 0.04 (in CCCCCC).
Consider `COCCOCCOCCOc1ccc(OCCOCCOCCOC)c(C=O)c1`, for which the photoluminescence quantum yield runs as follows: (in CC(C)(C)O) 0.13; (in CC(C)CO) 0.2; (in CC(C)O) 0.2; (in CCCCO) 0.22; (in CCCO) 0.23; (in CCO) 0.2. In addition, the photoluminescence quantum yield was found to be 0.02 (in CN(C)C=O); 0.14 (in CNC=O); 0.25 (in CO); 0.43 (in NC=O); 0.11 (in O).
In turn, `CCCCC1=Cc2c3ccc4cccc5ccc(c6cc(-c7ccc(N(c8ccccc8)c8ccccc8)cc7)n(c26)P1(=O)c1ccccc1)c3c45` (configuration not stated) showed a photoluminescence quantum yield (in C1CCCCC1) of 0.56; a photoluminescence quantum yield (in C1CCOC1) of 0.49; a photoluminescence quantum yield (in C1COCCO1) of 0.61; a photoluminescence quantum yield (in CC#N) of 0.39; a photoluminescence quantum yield (in CC(C)=O) of 0.52; a photoluminescence quantum yield (in CO) of 0.29. For the same compound, the photoluminescence quantum yield reads like this: (in Cc1ccccc1) 0.61; (in ClC(Cl)Cl) 0.58; (in ClCCl) 0.62.
